Earlier results as cited in article PMC12650809, “Evolving Therapeutic Landscape of ROS1-Positive Non-Small Cell Lung Cancer: An Updated Review” (Current Oncology, 2025).
Like-named read-outs stand apart in the source and are kept apart here.

Key:
[1] = tested on: ROS1^G2032R mutation; set-up: method as in PMID 36511802; conditions: preclinical studies
[2] = tested on: wild-type ROS1; set-up: method as in PMID 36511802; conditions: preclinical studies
[3] = tested on: ROS1-positive NSCLC; set-up: method as in earlier work; conditions: WCLC 2025 Abstract 4540
[4] = tested on: ROS1^L2086F; set-up: method as in PMID 38070596; conditions: L2086F, ATP-binding pocket
[5] = tested on: ROS1^G2032R; set-up: method as in PMID 38070596; conditions: solvent-front substitution
[6] = tested on: ROS1-positive NSCLC
[7] = tested on: ROS1-positive NSCLC; remark: listed apart in the source
[8] = 117 TKI-pretreated patients, WCLC 2025 Abstract 4540
[9] = TKI-naïve patients, n = 35, preliminary, WCLC 2025 Abstract 4540
[10] = TKI-naïve patients, preliminary, WCLC 2025 Abstract 4540
[11] = most common AEs, ref WCLC 2025 Abstract 4540
[12] = grade ≥ 3, ref WCLC 2025 Abstract 4540

Question: With `CCn1ncc2c1-c1cnc(N)c(c1)O[C@H](C)c1cc(F)ccc1-c1nn(C)nc1C2` [Zidesamtinib, zidesamtinib] as the compound, how does the IC50 [1] read?
Answer: The IC50 was 7.9 nM.

Question: What about the inhibitory activity [2] of the same compound?
Answer: Its inhibitory activity is “subnanomolar”.

Question: And the “ORR if G2032R Mutation (%)” value ([3]; TKI-pretreated patients with G2032R)?
Answer: Its value is 83%.

Question: And the “IC-ORR (%)” value ([3]; TKI-pretreated patients)?
Answer: Its value is 48%.

Question: And the “TKI-Pretreated ORR (%)” value ([3]; TKI-pretreated patients)?
Answer: The value was 44%.

Question: What about the “mPFS (Months)” value ([3]; TKI-pretreated patients) of the same compound?
Answer: The value was 9.7 Months.

Question: And the “resistance or activity with L2086F” value [4]?
Answer: The value was “cross-resistance”.

Question: What about the “resistance or sensitivity with ROS1^G2032R” value [5] of the same compound?
Answer: The value was “some sensitivity”.

Question: And the “12-month DOR rate” value [6, 8]?
Answer: Its value is 78%.

Question: And the ORR [6, 8]?
Answer: Its ORR is 44%.

Question: What about the “12-month DOR rate” value [6, 9] of the same compound?
Answer: Its value is 96%.

Question: What about the ORR [6, 9] of the same compound?
Answer: Its ORR is 89%.

Question: What about the “CNS progression events at data cutoff” value [6, 10] of the same compound?
Answer: Its value is “no CNS progression events”.

Question: What about the IC-ORR [6, 10] of the same compound?
Answer: The IC-ORR was 83%.

Question: What about the “intracranial complete responses (number)” value [6, 10] of the same compound?
Answer: Its value is “four”.

Question: And the constipation [6, 11]?
Answer: The constipation was 17%.

Question: And the creatine phosphokinase elevation [6, 11]?
Answer: The creatine phosphokinase elevation was 16%.

Question: What about the dyspnea [6, 11] of the same compound?
Answer: Its dyspnea is 15%.

Question: What about the fatigue [6, 11] of the same compound?
Answer: The fatigue was 16%.

Question: And the peripheral edema [6, 11]?
Answer: Its peripheral edema is 36%.

Question: And the treatment discontinuations ([6]; most common reason: pneumonia, ref WCLC 2025 Abstract 4540)?
Answer: Its treatment discontinuations is 2%.

Question: What about the dose reductions ([6]; ref WCLC 2025 Abstract 4540) of the same compound?
Answer: Its dose reductions is 10%.

Question: What about the “Discontinuation for AEs (%)” value ([7]; WCLC 2025 Abstract 4540) of the same compound?
Answer: The value was 2%.

Question: And the “Notable AEs: constipation” value ([7]; WCLC 2025 Abstract 4540)?
Answer: The value was 17%.

Question: What about the “Notable AEs: peripheral edema” value ([7]; WCLC 2025 Abstract 4540) of the same compound?
Answer: Its value is 36%.

Question: And the “Main Grade ≥ 3 AEs: CPK elevation” value [7, 12]?
Answer: The value was “CPK elevation (3%), dyspnea (3%)”.

Question: And the “Main Grade ≥ 3 AEs: dyspnea” value [7, 12]?
Answer: The value was “CPK elevation (3%), dyspnea (3%)”.

Question: And the “Notable AEs: CPK elevation” value ([7]; ref WCLC 2025 Abstract 4540)?
Answer: The value was 16%.

Question: What about the “Notable AEs: dyspnea” value ([7]; ref WCLC 2025 Abstract 4540) of the same compound?
Answer: Its value is 15%.

Question: What about the “Notable AEs: fatigue” value ([7]; ref WCLC 2025 Abstract 4540) of the same compound?
Answer: The value was 16%.
